Measured values as given in US20190110990A1, “LIPOPROTEINS CONTAINING PLATINUM COMPLEXES FOR THE TREATMENT OF CANCER” (UNIVERSITE DE BOURGOGNE, priority 2016, published 2019).

Assays:
[1] = system: SW480 colorectal cancer lines; experiment: Cell viability of SW480 cells by flow cytometry; assay type: cell-based; conditions: SW480, 48 hours, final cisplatin concentration 25 μM
Description: The cell viability was then evaluated by flow cytometry.

[2] = system: human macrophages; experiment: ROS production by M2 macrophages (DHE labelling, flow cytometry); assay type: cell-based; conditions: 2 hours, final cisplatin concentration 25 μM, basal (CTL) 8.2%
Description: After 7 days of culture in human M-CSF from Miltenyi, Biotec. (Macrophage Colony-Stimulating Factor) at 100 ng/ml, human macrophages were differentiated, from monocytes, into M2 alternative phenotype macrophages (protumoral). […] The production of reactive oxygen species (ROS, representative of an anti-tumour action) by the macrophages was then determined by flow cytometry after labelling with Dihydroethidium (DHE). […] Furthermore, the native HDLs, native LDLs and the LDL-Cis had no effect on ROS production by the macrophages.
The same protocol was repeated so as to compare the effect between the HDL-Cis and the oxidised LDL lipoproteins charged with cisplatin (LDLox+Cis) (see FIG. 2C). […] The oxidised LDLs were obtained by incubating native
LDLs (cholesterol, 1 mM) for 24 hours at 37° C. in the presence of copper sulphate (5 μM). After oxidation, the oxidised LDLs are dialysed in a PBS buffer.

**Q.** Which results are given for `N.N.[Cl][Pt][Cl]` [non-vectorised cisplatin, Cis-diamine-dichloro-platinum (II)]?
**A.** cancer cell mortality [1]: 41%; ROS production / macrophage activation [2]: 18.2%
